This assay concerns Alternaria solani. Description: Activity against early blight of tomato caused by Alternaria solani. Particulars: tomato cultivar Goldene Königin, protective spray 4 ppm, infected next day, assessed after 5 days; untreated plants 90% infected. It is filed as in vivo. The procedure:
The active compounds were prepared as a stock solution comprising 25 mg of active compound which was filled up to 10 ml with a mixture of acetone and/or dimethyl sulfoxide and the emulsifier Uniperol® EL (wetting agent having an emulsifying and dispersing action based on ethoxylated alkylphenols) in a solvent/emulsifier volume ratio of 99 to 1. The solution was then made up to 100 ml with water. This stock solution was diluted with the solvent/emulsifier/water mixture described to the active compound concentration given below.
Leaves of potted plants of the cultivar “Goldene Königin” were sprayed to runoff point with an aqueous suspension having the concentration of active compounds stated below. The next day, the leaves were infected with an aqueous spore suspension of Alternaria solani in 2% biomalt solution having a density of 0.12×10^6 spores/ml. The plants were then placed in a water-vapor-saturated chamber at temperatures of between 20 and 22° C. After 5 days, the infection on the untreated, but infected control plants had developed to such an extent that the infection could be determined visually in %.

On to `Cc1nc(C(F)(F)F)c(C(=O)Nc2ccccc2-c2cc(F)c(F)c(F)c2)s1` [I.1, N-(3′,4′,5′-Trifluorobiphenyl-2-yl)-2-methyl-4-trifluoromethylthiazole-5-carboxamide], for which the infection result is recorded as “at most 7%”.
`Cc1nc(C(F)(F)F)c(C(=O)Nc2ccccc2-c2ccc(F)c(F)c2)s1`: the infection came out at 20%.

The values above are taken from US20110004021A1, “THIAZOLECARBOXANILIDES” (priority 2005, published 2011).
